Data reported in patent US20230391768A2, “IMIDAZOPYRIDINE DERIVATIVES AND AZA-IMIDAZOPYRIDINE DERIVATIVES AS JANUS KINASE 2 INHIBITORS AND USES THEREOF” (Dana-Farber Cancer Institute, Inc., priority 2018, published 2023).
pIC50: −log10 of the molar value.

Columns and labels:
JAK2 = JAK2 (Homo sapiens (Human), UniProt O60674); assay: JAK2 Z-Lyte biochemical assay; conditions: commercial JAK2 Z-Lyte assay from Invitrogen
Method: The JAK2 Z-Lyte biochemical assay was performed according to manufacturer's instructions (Life Technologies).

MLK2 = MLK2 (Homo sapiens (Human), UniProt Q02779); assay: KINOMEscan; format: binding; conditions: read-out: percent of control
Chain of MLK2 (Q02779 whole entry): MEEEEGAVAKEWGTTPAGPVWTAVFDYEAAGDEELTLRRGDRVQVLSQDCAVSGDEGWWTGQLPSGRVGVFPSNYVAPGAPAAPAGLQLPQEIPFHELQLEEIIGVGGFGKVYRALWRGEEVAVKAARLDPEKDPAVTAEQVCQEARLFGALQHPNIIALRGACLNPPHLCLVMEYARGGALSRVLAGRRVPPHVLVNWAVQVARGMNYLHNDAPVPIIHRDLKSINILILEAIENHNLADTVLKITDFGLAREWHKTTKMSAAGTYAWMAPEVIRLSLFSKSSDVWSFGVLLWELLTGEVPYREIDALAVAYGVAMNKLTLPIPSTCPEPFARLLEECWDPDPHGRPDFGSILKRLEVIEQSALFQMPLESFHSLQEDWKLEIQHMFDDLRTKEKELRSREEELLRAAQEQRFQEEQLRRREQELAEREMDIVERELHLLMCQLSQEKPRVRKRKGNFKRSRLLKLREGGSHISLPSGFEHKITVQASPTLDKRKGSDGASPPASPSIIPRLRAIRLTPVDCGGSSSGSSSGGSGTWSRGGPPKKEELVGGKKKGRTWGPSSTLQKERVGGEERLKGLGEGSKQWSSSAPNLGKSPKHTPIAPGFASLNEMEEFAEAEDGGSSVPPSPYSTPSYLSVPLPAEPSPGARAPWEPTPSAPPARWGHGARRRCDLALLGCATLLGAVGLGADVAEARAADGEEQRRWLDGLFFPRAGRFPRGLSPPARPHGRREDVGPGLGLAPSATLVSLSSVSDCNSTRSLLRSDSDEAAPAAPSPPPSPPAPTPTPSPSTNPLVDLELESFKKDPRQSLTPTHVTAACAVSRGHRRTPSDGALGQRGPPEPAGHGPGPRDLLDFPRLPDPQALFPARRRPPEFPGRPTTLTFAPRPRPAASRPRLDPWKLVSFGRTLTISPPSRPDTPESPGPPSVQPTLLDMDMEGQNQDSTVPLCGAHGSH
Method: (§1) In vitro profiling of Compound I-2 (1 μM) was performed using the DiscoveRx KINOMEscan® platform.

RIOK1 = RIOK1 (Homo sapiens (Human), UniProt Q9BRS2); assay: KINOMEscan; format: binding; conditions: read-out: percent of control
Method: as §1

VPS34 = VPS34 (Homo sapiens (Human), UniProt Q8NEB9); assay: KINOMEscan; format: binding; conditions: read-out: percent of control
Method: as §1

QSK = QSK (Homo sapiens (Human), UniProt Q9Y2K2); assay: KINOMEscan; format: binding; conditions: read-out: percent of control
Chain of QSK (Q9Y2K2 whole entry): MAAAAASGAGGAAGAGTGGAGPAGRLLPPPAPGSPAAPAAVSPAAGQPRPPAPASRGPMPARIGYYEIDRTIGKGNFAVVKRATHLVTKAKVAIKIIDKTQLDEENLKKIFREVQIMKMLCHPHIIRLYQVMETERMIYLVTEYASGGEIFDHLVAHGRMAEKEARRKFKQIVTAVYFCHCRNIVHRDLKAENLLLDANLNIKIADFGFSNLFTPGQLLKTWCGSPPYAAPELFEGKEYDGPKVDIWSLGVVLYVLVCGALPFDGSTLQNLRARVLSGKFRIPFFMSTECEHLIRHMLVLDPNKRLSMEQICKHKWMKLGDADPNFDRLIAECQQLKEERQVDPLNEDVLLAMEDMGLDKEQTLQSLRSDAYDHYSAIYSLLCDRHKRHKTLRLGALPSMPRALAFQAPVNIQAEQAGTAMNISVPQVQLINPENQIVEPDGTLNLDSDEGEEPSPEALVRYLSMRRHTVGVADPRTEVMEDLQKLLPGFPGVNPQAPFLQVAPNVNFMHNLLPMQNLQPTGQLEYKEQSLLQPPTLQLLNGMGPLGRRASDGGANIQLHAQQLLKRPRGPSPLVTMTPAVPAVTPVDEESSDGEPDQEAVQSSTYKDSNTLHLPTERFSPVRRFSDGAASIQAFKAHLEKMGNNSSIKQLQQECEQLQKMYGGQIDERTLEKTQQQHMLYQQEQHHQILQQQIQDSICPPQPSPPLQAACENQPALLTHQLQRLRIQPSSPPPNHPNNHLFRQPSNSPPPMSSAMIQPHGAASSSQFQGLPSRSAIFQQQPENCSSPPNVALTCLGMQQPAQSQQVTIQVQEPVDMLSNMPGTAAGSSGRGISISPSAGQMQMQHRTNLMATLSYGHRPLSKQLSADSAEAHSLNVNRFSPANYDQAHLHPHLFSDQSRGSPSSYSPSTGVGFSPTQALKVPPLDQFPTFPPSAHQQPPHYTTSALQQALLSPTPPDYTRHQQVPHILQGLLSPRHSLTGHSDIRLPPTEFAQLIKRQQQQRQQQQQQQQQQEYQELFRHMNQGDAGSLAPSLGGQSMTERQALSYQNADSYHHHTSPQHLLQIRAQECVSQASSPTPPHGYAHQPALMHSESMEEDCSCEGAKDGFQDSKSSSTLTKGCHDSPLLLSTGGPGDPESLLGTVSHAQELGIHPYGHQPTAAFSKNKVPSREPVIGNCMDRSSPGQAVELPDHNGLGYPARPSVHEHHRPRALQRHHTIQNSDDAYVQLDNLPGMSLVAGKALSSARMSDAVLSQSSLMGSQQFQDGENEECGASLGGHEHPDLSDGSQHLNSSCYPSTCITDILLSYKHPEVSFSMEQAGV
Method: as §1

PAK2 = PAK2 (Homo sapiens (Human), UniProt Q13177); assay: KINOMEscan; format: binding; conditions: read-out: percent of control
Method: as §1

MAK = MAK (Homo sapiens (Human), UniProt P20794); assay: KINOMEscan; format: binding; conditions: read-out: percent of control
Method: as §1

AKT2 = AKT2 (Homo sapiens (Human), UniProt P31751); assay: KINOMEscan; format: binding; conditions: read-out: percent of control
Method: as §1

ERBB4 = ERBB4 (Homo sapiens (Human), UniProt Q15303); assay: KINOMEscan; format: binding; conditions: read-out: percent of control
Chain of ERBB4 (Q15303 26-1308): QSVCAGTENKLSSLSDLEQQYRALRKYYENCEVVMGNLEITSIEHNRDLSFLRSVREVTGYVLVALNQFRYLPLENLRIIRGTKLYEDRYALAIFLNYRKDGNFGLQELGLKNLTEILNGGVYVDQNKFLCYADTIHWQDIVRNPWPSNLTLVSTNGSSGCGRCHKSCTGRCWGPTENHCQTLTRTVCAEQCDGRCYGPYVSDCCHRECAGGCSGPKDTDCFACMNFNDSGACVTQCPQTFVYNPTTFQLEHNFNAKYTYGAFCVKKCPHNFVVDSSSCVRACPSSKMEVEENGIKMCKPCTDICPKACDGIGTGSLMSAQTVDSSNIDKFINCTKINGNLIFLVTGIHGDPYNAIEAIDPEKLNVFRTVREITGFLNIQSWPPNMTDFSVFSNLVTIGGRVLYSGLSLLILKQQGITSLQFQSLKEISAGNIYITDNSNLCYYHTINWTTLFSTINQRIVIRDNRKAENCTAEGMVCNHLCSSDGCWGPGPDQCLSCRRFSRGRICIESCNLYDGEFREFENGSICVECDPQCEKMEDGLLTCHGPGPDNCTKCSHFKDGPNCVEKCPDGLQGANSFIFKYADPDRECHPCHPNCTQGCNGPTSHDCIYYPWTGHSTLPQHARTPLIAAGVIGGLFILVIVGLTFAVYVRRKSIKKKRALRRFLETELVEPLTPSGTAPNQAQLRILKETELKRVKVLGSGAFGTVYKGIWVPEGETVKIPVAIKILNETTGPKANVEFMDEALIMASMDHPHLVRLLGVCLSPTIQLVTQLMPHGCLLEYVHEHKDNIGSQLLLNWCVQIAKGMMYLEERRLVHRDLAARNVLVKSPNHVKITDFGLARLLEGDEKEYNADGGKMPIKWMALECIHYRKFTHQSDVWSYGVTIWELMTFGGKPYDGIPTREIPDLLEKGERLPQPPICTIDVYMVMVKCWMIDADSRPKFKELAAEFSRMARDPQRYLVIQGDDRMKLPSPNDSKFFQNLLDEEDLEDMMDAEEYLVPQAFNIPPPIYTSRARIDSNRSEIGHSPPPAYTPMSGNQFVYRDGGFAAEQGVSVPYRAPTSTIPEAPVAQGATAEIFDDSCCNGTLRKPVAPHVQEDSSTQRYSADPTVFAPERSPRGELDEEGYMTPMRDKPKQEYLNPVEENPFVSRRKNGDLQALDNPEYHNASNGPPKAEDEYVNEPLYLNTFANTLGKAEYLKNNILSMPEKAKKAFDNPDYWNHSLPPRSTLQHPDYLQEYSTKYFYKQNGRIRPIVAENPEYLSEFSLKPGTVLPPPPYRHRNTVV
Method: as §1

Chain of JAK2 (O60674 whole entry): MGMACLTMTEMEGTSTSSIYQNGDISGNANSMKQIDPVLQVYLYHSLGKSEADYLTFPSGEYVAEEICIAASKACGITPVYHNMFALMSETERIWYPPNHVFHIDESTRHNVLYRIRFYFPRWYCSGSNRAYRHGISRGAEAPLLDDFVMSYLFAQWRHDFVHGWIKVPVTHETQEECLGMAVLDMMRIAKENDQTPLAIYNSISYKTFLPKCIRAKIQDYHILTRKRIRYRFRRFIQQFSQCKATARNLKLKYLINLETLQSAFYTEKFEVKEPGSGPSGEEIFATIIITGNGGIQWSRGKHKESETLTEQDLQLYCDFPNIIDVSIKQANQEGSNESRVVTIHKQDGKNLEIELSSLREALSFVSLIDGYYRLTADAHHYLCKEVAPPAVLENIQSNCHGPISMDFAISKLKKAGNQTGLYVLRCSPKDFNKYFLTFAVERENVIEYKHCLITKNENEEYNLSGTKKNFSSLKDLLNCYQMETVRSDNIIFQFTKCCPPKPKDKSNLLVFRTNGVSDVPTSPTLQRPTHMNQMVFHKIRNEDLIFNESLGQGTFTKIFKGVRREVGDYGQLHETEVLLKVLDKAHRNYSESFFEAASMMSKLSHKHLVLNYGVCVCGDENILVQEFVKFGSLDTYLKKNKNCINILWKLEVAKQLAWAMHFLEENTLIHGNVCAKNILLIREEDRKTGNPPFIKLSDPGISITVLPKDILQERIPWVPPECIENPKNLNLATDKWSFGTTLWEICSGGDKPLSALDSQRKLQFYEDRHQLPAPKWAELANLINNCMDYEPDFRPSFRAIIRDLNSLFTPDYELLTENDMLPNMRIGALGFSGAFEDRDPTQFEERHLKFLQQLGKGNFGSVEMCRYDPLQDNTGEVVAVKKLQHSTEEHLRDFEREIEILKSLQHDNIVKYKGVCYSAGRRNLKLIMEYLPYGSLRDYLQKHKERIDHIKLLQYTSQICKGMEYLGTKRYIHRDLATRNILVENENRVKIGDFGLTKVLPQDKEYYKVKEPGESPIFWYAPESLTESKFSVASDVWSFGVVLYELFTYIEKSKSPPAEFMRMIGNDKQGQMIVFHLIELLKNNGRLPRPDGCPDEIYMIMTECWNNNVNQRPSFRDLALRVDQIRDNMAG

Row | Structure (SMILES) | pIC50 (JAK2) | remaining binding at 1 µM (MLK2) | remaining binding at 1 µM (RIOK1) | remaining binding at 1 µM (VPS34) | remaining binding at 1 µM (QSK) | remaining binding at 1 µM (PAK2) | remaining binding at 1 µM (MAK) | remaining binding at 1 µM (AKT2) | remaining binding at 1 µM (ERBB4)
1 | CCN1CCN(Cc2cc(NC(=O)c3ccc(C)c(-c4ccc5nc(NC(=O)C6CC6)cn5n4)c3)cc(C(F)(F)F)c2)CC1 [Compound I-2, 3-(2-(cyclopropanecarboxamido)imidazo[1,2-b]pyridazin-6-yl)-N-(3-((4-ethylpiperazin-1-yl)methyl)-5-(trifluoromethyl)phenyl)-4-methylbenzamide] | 6.72 | 72% | 100% | 91% | 92% | 93% | 11% | 100% | 71%
2 | CCN1CCN(Cc2cc(NC(=O)c3ccc(C)c(-c4ccc5nc(NC(=O)C6CC6)cn5c4)c3)cc(C(F)(F)F)c2)CC1 [Compound I-6, 3-(2-(cyclopropanecarboxamido)imidazo[1,2-a]pyridin-6-yl)-N-(3-((4-ethylpiperazin-1-yl)methyl)-5-(trifluoromethyl)phenyl)-4-methylbenzamide] | 6.55 | 62% | 95% | 93% | 83% | 70% | 22% | 98% | 53%
